Results as given in ChEMBL document CHEMBL1201862, “PubChem BioAssay data set” (2004).
Active and inactive are the calls of the source. Cut-off read from the data, not from the text of the source: actives have a measured IC50 and inactives only a lower limit.

Target: Envelope glycoprotein gp160 (Human immunodeficiency virus 1, UniProt Q6QLK5)
Experiment: cell-free HIV fusion peptide-binding blockers – biochemical, uHTS, fluorescence dequenching, […] (AID 1986)

Chain of Envelope glycoprotein gp160 (Q6QLK5 whole entry, the tested form may be a part): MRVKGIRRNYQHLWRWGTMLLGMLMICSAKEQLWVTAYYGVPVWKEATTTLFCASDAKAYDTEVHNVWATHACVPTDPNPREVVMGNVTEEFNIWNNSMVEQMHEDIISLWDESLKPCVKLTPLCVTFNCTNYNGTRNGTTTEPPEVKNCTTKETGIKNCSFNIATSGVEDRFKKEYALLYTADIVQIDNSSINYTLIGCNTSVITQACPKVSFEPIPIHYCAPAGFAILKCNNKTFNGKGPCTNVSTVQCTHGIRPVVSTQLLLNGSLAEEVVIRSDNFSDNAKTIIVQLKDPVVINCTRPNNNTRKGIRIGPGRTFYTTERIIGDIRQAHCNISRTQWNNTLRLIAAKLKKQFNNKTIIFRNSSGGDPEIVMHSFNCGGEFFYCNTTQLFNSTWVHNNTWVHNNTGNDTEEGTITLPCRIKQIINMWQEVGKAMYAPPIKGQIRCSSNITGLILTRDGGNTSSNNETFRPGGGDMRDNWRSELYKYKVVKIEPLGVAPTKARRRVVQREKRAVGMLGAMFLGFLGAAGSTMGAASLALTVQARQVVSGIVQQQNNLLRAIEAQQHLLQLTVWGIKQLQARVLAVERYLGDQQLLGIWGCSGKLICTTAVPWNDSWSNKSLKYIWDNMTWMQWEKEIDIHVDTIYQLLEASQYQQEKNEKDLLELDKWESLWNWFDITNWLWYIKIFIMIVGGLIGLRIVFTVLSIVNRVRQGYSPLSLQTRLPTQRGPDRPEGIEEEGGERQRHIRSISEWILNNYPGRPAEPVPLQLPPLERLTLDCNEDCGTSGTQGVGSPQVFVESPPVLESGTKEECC

In the case of `COc1cc(/C=C2\SC(=O)N(CC(=O)Nc3cccc(C)c3)C2=O)cc([N+](=O)[O-])c1O`, the IC50 is reported as 23.1 µM (active).
